This note sets out measurements from PubChem BioAssay AID1259407 (Chemical Carcinogenesis Research Information System (CCRIS), 2018).

The test system of this data set is CCRIS mutagenicity, Ames/micronucleus/aberration tests. Briefly: CCRIS mutagenicity studies.
The mark [1] stands for this setting: Test System: AMES SALMONELLA TYPHIMURIUM, Strain/Indicator: TA100, Metabolic Activation: NONE, Method: PREINCUBATION

SMILES strings stand for the structures. Calls of active or inactive are those of the source. No rule for the calls is given here.

In the case of `COC(=O)c1ccc(C)cc1`, the mutagenic call is, setting by setting: (Test System: AMES SALMONELLA TYPHIMURIUM, Strain/Indicator: TA97, Metabolic Activation: HAMSTER, LIVER, S-9, AROCLOR 1254 (10%), Method: PREINCUBATION) “inactive; negative”; (Test System: AMES SALMONELLA TYPHIMURIUM, Strain/Indicator: TA97, Metabolic Activation: HAMSTER, LIVER, S-9, AROCLOR 1254 (30%), Method: PREINCUBATION) “inactive; negative”; (Test System: AMES SALMONELLA TYPHIMURIUM, Strain/Indicator: TA97, Metabolic Activation: NONE, Method: PREINCUBATION) “inactive; negative”; (Test System: AMES SALMONELLA TYPHIMURIUM, Strain/Indicator: TA97, Metabolic Activation: RAT, LIVER, S-9, AROCLOR 1254 (10%), Method: PREINCUBATION) “inactive; negative”; (Test System: AMES SALMONELLA TYPHIMURIUM, Strain/Indicator: TA97, Metabolic Activation: RAT, LIVER, S-9, AROCLOR 1254 (30%), Method: PREINCUBATION) “inactive; negative”; (Test System: AMES SALMONELLA TYPHIMURIUM, Strain/Indicator: TA98, Metabolic Activation: HAMSTER, LIVER, S-9, AROCLOR 1254 (10%), Method: PREINCUBATION) “inactive; negative”. Also, the mutagenic call runs as follows: (Test System: AMES SALMONELLA TYPHIMURIUM, Strain/Indicator: TA98, Metabolic Activation: HAMSTER, LIVER, S-9, AROCLOR 1254 (30%), Method: PREINCUBATION) “inactive; negative”; (Test System: AMES SALMONELLA TYPHIMURIUM, Strain/Indicator: TA98, Metabolic Activation: NONE, Method: PREINCUBATION) “inactive; negative”; (Test System: AMES SALMONELLA TYPHIMURIUM, Strain/Indicator: TA98, Metabolic Activation: RAT, LIVER, S-9, AROCLOR 1254 (10%), Method: PREINCUBATION) “inactive; negative”; (Test System: AMES SALMONELLA TYPHIMURIUM, Strain/Indicator: TA98, Metabolic Activation: RAT, LIVER, S-9, AROCLOR 1254 (30%), Method: PREINCUBATION) “inactive; negative”; (Test System: AMES SALMONELLA TYPHIMURIUM, Strain/Indicator: TA100, Metabolic Activation: HAMSTER, LIVER, S-9, AROCLOR 1254 (10%), Method: PREINCUBATION) “inactive; negative”; (Test System: AMES SALMONELLA TYPHIMURIUM, Strain/Indicator: TA100, Metabolic Activation: HAMSTER, LIVER, S-9, AROCLOR 1254 (30%), Method: PREINCUBATION) “inactive; negative”. Also, the mutagenic call runs as follows: under setting [1], “inactive; negative”; (Test System: AMES SALMONELLA TYPHIMURIUM, Strain/Indicator: TA100, Metabolic Activation: RAT, LIVER, S-9, AROCLOR 1254 (10%), Method: PREINCUBATION) “inactive; negative”; (Test System: AMES SALMONELLA TYPHIMURIUM, Strain/Indicator: TA100, Metabolic Activation: RAT, LIVER, S-9, AROCLOR 1254 (30%), Method: PREINCUBATION) “inactive; negative”; (Test System: AMES SALMONELLA TYPHIMURIUM, Strain/Indicator: TA1535, Metabolic Activation: HAMSTER, LIVER, S-9, AROCLOR 1254 (10%), Method: PREINCUBATION) “inactive; negative”; (Test System: AMES SALMONELLA TYPHIMURIUM, Strain/Indicator: TA1535, Metabolic Activation: HAMSTER, LIVER, S-9, AROCLOR 1254 (30%), Method: PREINCUBATION) “inactive; negative”; (Test System: AMES SALMONELLA TYPHIMURIUM, Strain/Indicator: TA1535, Metabolic Activation: NONE, Method: PREINCUBATION) “inactive; negative”. Besides, the mutagenic call is, setting by setting: (Test System: AMES SALMONELLA TYPHIMURIUM, Strain/Indicator: TA1535, Metabolic Activation: RAT, LIVER, S-9, AROCLOR 1254 (10%), Method: PREINCUBATION) “inactive; negative”; (Test System: AMES SALMONELLA TYPHIMURIUM, Strain/Indicator: TA1535, Metabolic Activation: RAT, LIVER, S-9, AROCLOR 1254 (30%), Method: PREINCUBATION) “inactive; negative”; (Test System: AMES SALMONELLA TYPHIMURIUM, Strain/Indicator: TA1537, Metabolic Activation: HAMSTER, LIVER, S-9, AROCLOR 1254 (30%), Method: PREINCUBATION) “inactive; negative”; (Test System: AMES SALMONELLA TYPHIMURIUM, Strain/Indicator: TA1537, Metabolic Activation: NONE, Method: PREINCUBATION) “inactive; negative”; (Test System: AMES SALMONELLA TYPHIMURIUM, Strain/Indicator: TA1537, Metabolic Activation: RAT, LIVER, S-9, AROCLOR 1254 (30%), Method: PREINCUBATION) “inactive; negative”.

For the molecule `Cc1ccc2cc3c(c4c2c1CC4)[C@@H](O)[C@@H](O)c1ccccc1-3`, the mutagenic call (Test System: CHINESE HAMSTER V-79, Strain/Indicator: V-79/8-AZAGUANINE, Metabolic Activation: NONE, Method: STANDARD PLATE) was “active; positive”.

As to `Cc1cc(O)c2c(c1O)C(=O)C13C(=C2O)C(=O)C2C(O)C1C1C(O)C3C(=O)C3=C(O)c4c(O)cc(C)c(O)c4C(=O)C321` (centres undefined), the mutagenic call was “inactive; negative” under setting [1] and “inactive; negative” (Test System: AMES SALMONELLA TYPHIMURIUM, Strain/Indicator: TA100, Metabolic Activation: RAT, LIVER, S-9, PHENOBARBITAL, Method: PREINCUBATION).

With `ClC1C(Cl)C(Cl)C(Cl)C(Cl)C1Cl` (centres undefined), the mutagenic call was “active; positive (structural changes)” (End Point: IN VITRO CHROMOSOMAL ABERRATIONS, Test System: HUMAN PERIPHERAL BLOOD LYMPHOCYTES, Metabolic Activation: NONE); “inactive; negative” (Test System: AMES SALMONELLA TYPHIMURIUM, Strain/Indicator: TA97, Metabolic Activation: NONE, Method: STANDARD PLATE); “inactive; negative” (Test System: AMES SALMONELLA TYPHIMURIUM, Strain/Indicator: TA97, Metabolic Activation: RAT, LIVER, S-9, AROCLOR 1254, Method: STANDARD PLATE); “inactive; negative” (Test System: AMES SALMONELLA TYPHIMURIUM, Strain/Indicator: TA98, Metabolic Activation: NONE, Method: STANDARD PLATE); “inactive; negative” (Test System: AMES SALMONELLA TYPHIMURIUM, Strain/Indicator: TA100, Metabolic Activation: NONE, Method: STANDARD PLATE); “inactive; negative” (Test System: AMES SALMONELLA TYPHIMURIUM, Strain/Indicator: TA100, Metabolic Activation: RAT, LIVER, S-9, AROCLOR 1254, Method: STANDARD PLATE). The mutagenic call was “inactive; negative” (Test System: AMES SALMONELLA TYPHIMURIUM, Strain/Indicator: TA102, Metabolic Activation: NONE, Method: STANDARD PLATE); “inactive; negative” (Test System: AMES SALMONELLA TYPHIMURIUM, Strain/Indicator: TA102, Metabolic Activation: RAT, LIVER, S-9, AROCLOR 1254, Method: STANDARD PLATE); “inactive; negative” (Test System: CHINESE HAMSTER OVARY, Strain/Indicator: CHO (HPRT)/6-THIOGUANINE, Metabolic Activation: NONE); “inactive; negative” (Test System: CHINESE HAMSTER OVARY, Strain/Indicator: CHO (HPRT)/6-THIOGUANINE, Metabolic Activation: S-9); “inactive; negative” (Test System: UDS HUMAN HEPATOCYTES, Strain/Indicator: THY INCORP, Metabolic Activation: NONE, Method: AUTORADIOGRAPHY); “inactive; negative” (Test System: UDS MOUSE HEPATOCYTES, Strain/Indicator: THY INCORP, Metabolic Activation: NONE, Method: AUTORADIOGRAPHY). Also, the mutagenic call (Test System: UDS RAT HEPATOCYTES, Strain/Indicator: THY INCORP, Metabolic Activation: NONE, Method: AUTORADIOGRAPHY) is “inactive; negative”.
